Structures are written as SMILES.

The subject of series [1] is pooled cryopreserved hepatocytes. Description: Hepatic Stability Assay (in vitro half-life method). Also on record: dose or concentration left out as unconfirmed. The format is in vitro ADME. The note with it: 37° C., 1×10^6 cells/mL, 0-6 hours, LC-MS/MS, 39.5 hours is the maximum detectable half life. The method in brief:
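Pooled cryopreserved hepatocytes (1×10^6 cells/mL) incubated with compound at […] test concentration, 37° C.; samples at 0, 1, 3 and 6 h quantified by LC-MS/MS. Half-life from rate of compound disappearance, scaled to predicted hepatic clearance via well-stirred model.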

Series [2] concerns HBV AD38 viral particles in HepG2 cell line overexpressing NTCP. Description: HBV DNA Quantification Assay. The format is cell-based. The note with it: Hepatitis B virus, HepG2, 120 h, HBV-infected HepG2-NTCP cells, 5 days incubation, HBV DNA in culture supernatant (QuantiGene 2.0); geometric mean of a minimum of four determinations. The essentials: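 Antiviral EC50 derived by four-parameter dose-response fit and given as geometric mean of at least four runs. Read-out was branched-DNA (QuantiGene 2.0) luminescence for HBV DNA in culture supernatant after 5 days of compound exposure. Cells: HepG2-NTCP infected 4 days beforehand with AD38 particles, 4000 genome equivalents per cell.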

The term t½ denotes the time needed for the level to fall by half in the phase considered. Turning to `CNC(=O)C1(NC(=O)C(=O)c2c(C)c(C(=O)Nc3ccc(F)c(Cl)c3)n3c2CCC3C)CC(F)(F)C1` (single isomer, unassigned) [Example 23, N-(3-chloro-4-fluorophenyl)-7-(2-((3,3-difluoro-1-(methylcarbamoyl)cyclobutyl)amino)-2-oxoacetyl)-3,6-dimethyl-2,3-dihydro-1H-pyrrolizine-5-carboxamide], the t½ in series [1] was 9.6 h. On the same count and under the same terms, under `CNC(=O)C1(NC(=O)C(=O)c2c(C)c(C(=O)Nc3ccc(F)c(F)c3)n3c2C[C@@H](F)C3)CC(F)(F)C1` [Example 49, (R)-7-(2-((3,3-difluoro-1-(methylcarbamoyl)cyclobutyl)amino)-2-oxoacetyl)-N-(3,4-difluorophenyl)-2-fluoro-6-methyl-2,3-dihydro-1H-pyrrolizine-5-carboxamide] stands 39.5 h; under `CNC(=O)C1(NC(=O)C(=O)c2c(C)c(C(=O)Nc3ccc(F)c(C(F)F)c3)n3c2CCC3)CC(F)(F)C1` [Example 116, 7-(2-((3,3-difluoro-1-(methylcarbamoyl)cyclobutyl)amino)-2-oxoacetyl)-N-(3-(difluoromethyl)-4-fluorophenyl)-6-methyl-2,3-dihydro-1H-pyrrolizine-5-carboxamide], 39.5 h; under `CNC(=O)C1(NC(=O)C(=O)c2c(C)c(C(=O)Nc3ccc(F)cc3)n3c2CCC3)CC(F)(F)C1` [Example 47, 7-(2-((3,3-difluoro-1-(methylcarbamoyl)cyclobutyl)amino)-2-oxoacetyl)-N-(4-fluorophenyl)-6-methyl-2,3-dihydro-1H-pyrrolizine-5-carboxamide], 39.5 h. On the same count and under the same terms, for `Cc1c(C(=O)C(=O)NC2(c3c[nH]nn3)CC2)c2n(c1C(=O)Nc1ccnc(C(F)F)c1)[C@@H]1C[C@@H]1C2` [Example 56, (1aR,6aR)-5-(2-((1-(1H-1,2,3-triazol-4-yl)cyclopropyl)amino)-2-oxoacetyl)-N-(2-(difluoromethyl)pyridin-4-yl)-4-methyl-1,1a,6,6a-tetrahydrocyclopropa[b]pyrrolizine-3-carboxamide] the value was 39.5 h. With `Cc1c(C(=O)C(=O)NC2(C)CS(=O)(=O)C2)c2n(c1C(=O)Nc1ccc(F)c(C#N)c1)[C@@H]1C[C@@H]1C2` [Example 72, (1aR,6aR)—N-(3-cyano-4-fluorophenyl)-4-methyl-5-(2-((3-methyl-1,1-dioxidothietan-3-yl)amino)-2-oxoacetyl)-1,1a,6,6a-tetrahydrocyclopropa[b]pyrrolizine-3-carboxamide], the t½ in series [1] was found to be 39.5 h. Usually EC50 stands for the concentration giving half of the maximal effect. Regarding `CNC(=O)C1(NC(=O)C(=O)c2c(C)c(C(=O)Nc3ccc(F)c(C#N)c3)n3c2CCC3)CC(F)(F)C1` [Example 35, N-(3-cyano-4-fluorophenyl)-7-(2-((3,3-difluoro-1-(methylcarbamoyl)cyclobutyl)amino)-2-oxoacetyl)-6-methyl-2,3-dihydro-1H-pyrrolizine-5-carboxamide], the EC50 in series [2] was 109 nM. In series [1], this compound gave a t½ of 39.5 h. In the same order, the values of `CNC(=O)C1(NC(=O)C(=O)c2c(C)c(C(=O)Nc3ccc(F)c(F)c3)n3c2CCC3)CC(F)(F)C1` [Example 44, 7-(2-((3,3-difluoro-1-(methylcarbamoyl)cyclobutyl)amino)-2-oxoacetyl)-N-(3,4-difluorophenyl)-6-methyl-2,3-dihydro-1H-pyrrolizine-5-carboxamide] are 31 nM and 39.5 h. In series [1], `Cc1c(C(=O)C(=O)NC2(c3c[nH]nn3)CC2)c2n(c1C(=O)Nc1ccc(F)cc1)CCC2` [Example 70, 7-(2-((1-(1H-1,2,3-triazol-4-yl)cyclopropyl)amino)-2-oxoacetyl)-N-(4-fluorophenyl)-6-methyl-2,3-dihydro-1H-pyrrolizine-5-carboxamide] showed a t½ of 39.5 h.

The compound `CNC(=O)C1(NC(=O)C(=O)c2c(C)c(C(=O)Nc3ccc(F)c(Cl)c3)n3c2CCC3C)CC(F)(F)C1` (single isomer, unassigned) [Example 22, N-(3-chloro-4-fluorophenyl)-7-(2-((3,3-difluoro-1-(methylcarbamoyl)cyclobutyl)amino)-2-oxoacetyl)-3,6-dimethyl-2,3-dihydro-1H-pyrrolizine-5-carboxamide] showed a t½ in series [1] of 2.7 h.

These data come from patent US10328053B2 (Gilead Sciences, Inc., priority 2016, dated 2019).
